Experimental data as given in PMC12131194, “Rational design, synthesis, and evaluation of novel polypharmacological compounds targeting NaV1.5, KV1.5, and K2P channels for atrial fibrillation” (The Journal of Biological Chemistry, 2025).
“And” between values parts separate entries of the source, which are not always exact repeats. Equal values may be shown once.

Columns and labels:
human TASK-1 = human TASK-1 (Homo sapiens, UniProt O14649); experiment: TEVC recordings in X. laevis oocytes, TASK-1; format: cell-based; design: human TASK-1 (KCNK3, NM_002246); expressed in transfected cells; host or cells: Xenopus laevis oocytes injected with cRNA; settings: for Ionic current block IK2P: from inhibition curves, used for simulation
Chain of human TASK-1 (O14649 whole entry): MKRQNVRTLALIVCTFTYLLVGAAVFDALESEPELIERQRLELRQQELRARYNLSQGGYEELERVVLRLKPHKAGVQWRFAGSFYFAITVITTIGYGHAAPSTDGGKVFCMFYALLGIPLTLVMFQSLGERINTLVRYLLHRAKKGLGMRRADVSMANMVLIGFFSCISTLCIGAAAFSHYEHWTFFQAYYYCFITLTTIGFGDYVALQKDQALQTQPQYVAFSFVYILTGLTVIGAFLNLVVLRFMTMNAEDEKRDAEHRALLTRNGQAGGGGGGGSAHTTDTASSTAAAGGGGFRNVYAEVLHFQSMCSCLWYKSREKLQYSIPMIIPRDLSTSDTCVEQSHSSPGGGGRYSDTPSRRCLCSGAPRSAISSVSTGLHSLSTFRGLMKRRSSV
Method: The two-electrode voltage clamp (TEVC) technique was used for electrophysiology tests. Channels were expressed in Xenopus laevis oocytes. The initial channel-blocking potential was assessed at 100 μM for the 10 synthesized compounds on TASK-1 and KV1.5 channels.
To obtain X. laevis oocytes, the frogs were anesthetized with 2 g/L of tricaine methanesulfonate, and the ovarian lobes were mechanically separated with forceps. The oocytes were incubated for 120 min in an OR2 solution containing in mM: NaCl 82.5, KCl 2, MgCl2 1, HEPES 5 (pH 7.5) supplemented with 2 mg/ml of collagenase II (Sigma) to remove residual connective tissue and obtain individual oocytes. Subsequently, the oocytes were washed with a ND96 solution containing in mM: NaCl 96, KCl 2, CaCl2 1.8, MgCl2 1, HEPES 5 (pH 7.5, adjusted with NaOH) and stored at 18 °C in ND96 solution supplemented with 1 ml of gentamicin (50 mg/L), sodium pyruvate (275 mg/L) and (90 mg/L) theophylline (inhibits further oocyte maturation) before and after RNA injection.
In order to overexpress the channel in the oocyte, each of the channels to be measured was subcloned (complementary DNA (cDNA); human TASK-1 (KCNK3, NM_002246), h KV1.5 (KCNA5, NM_002234), h NaV1.5 (hH1, M77235), TASK-4/TALK-2 (KCNK17, NM_AF358910), TREK-1 (KCNK2, AF004711) and Kir2.1 (KCNJ2, NM_017296) into pSGEM, pBF1 or pSP64 expression vector, and the cDNA was linearized with NheI or MluI. Complementary RNA (cRNA) was synthesized with the mMESSAGE mMACHINE-Kit (Ambion). The quality of the cRNA was tested on an agarose gel by electrophoresis. cRNA was quantified using a UV-Vis spectrophotometer (NanoDrop 2000). Subsequently, the channel was transfected in the oocytes in stages V and VI, for which […] (TASK-1, KV1.5 or TREK-1), 10 ng (NaV1.5 or TASK-4) o 2.5 ng (Kir2.1) per oocyte of cRNA was injected with a NanojectII microinjector (Drummond Scientific). The oocytes were stored in 24-well plates for 24 to 48 h at 18 °C. After this time, the overexpression of each channel was monitored through electrophysiology.
Two-electrode voltage clamp measurements were performed 24 or 48 h after cRNA injection at room temperature (20–22 °C) in ND96 recording solution with a TurboTEC-10CD (npi) amplifier and a Digidata 1550B (for TASK-1 and KV1.5) and 1440A (for NaV1.5) A/D converter from Axon Instruments. Micropipettes were fabricated from GB 150 TF-8P borosilicate glass capillaries (Science Products) elongated in a DMZ-Universal Puller (Zeitz, Germany). […] ND96 was used as bath solution. Data acquisition was performed using Clampex 10 software (Axon Instruments), and data were analyzed with ClampFit 10 (Axon Instruments) and Origin 7 (Origin Lab Corporation).
For compound inhibition testing, from a holding potential of −80 mV a first test pulse to 0 mV of 1 s duration was followed by a repolarization step at −80 mV for 1 s, directly followed by another 1 s test pulse at +40 mV. The sweep time interval was 10 s for KV1.5 and TASK-1 channels. For the NaV1.5 channel, the block was analyzed with voltage steps from a holding potential of −80 mV. A first depolarizing pulse to −30 mV of 50 ms duration was applied, followed by a 5 ms step to −80 mV. The sweep time interval was 5 s. The compounds were applied at different concentrations to determine the half-maximal inhibitory concentration (IC50), using a fit to the Hill equation.
To test for a putative voltage-dependence of the block by the compound 6f in KV1.5, a 1.5 s voltage step protocol from −80 to +80 mV with +20 mV increments was used. The holding potential was −80 mV and the sweep time interval was 10 s. Currents were analyzed at the end of the voltage pulse. For TASK-1, voltage-dependence of block was probed using a high-potassium solution (KD96) containing in mM: KCl 96, NaCl 2, CaCl2 1.8, MgCl2 1, HEPES 5, (pH 7.5, adjusted with KOH). From a holding potential of 0 mV, voltage was stepped from −80 mV to +80 mV for 1.5 s in +20 mV steps every 10 s. […]

HEK-293 cells = experiment: MTT cytotoxicity assay; format: cell-based, human
Method: Another method used to assess cytotoxicity was the MTT assay on HEK293 cells. Initially, the cells were seeded at 3000 cells per well in a 96-well plate. After 24 h, they were exposed to increasing compound concentrations (1, 5, 10, 25, 50, 100, 250 and 500 μM) for 72 h. The cells cultured in a medium supplemented with 10% FBS were the positive control for cell viability. Each condition was evaluated triplicate in independent experiments. The ROCHE Cell Proliferation Kit I, MTT (Cat. no. 11465007001), was used, following the manufacturer's indications. Briefly, 10 μl of the labeling reagent was added, and the plates were incubated at 37 °C for 4 h. Subsequently, 100 μl of solubilization solution was added to each well, and the plates were incubated overnight in the dark. Finally, optical density was measured at 570 nm using a microplate reader (Thermo Fisher Scientific). The optical density measurements were used to calculate cell viability, normalizing the data to the positive control. Results were expressed as a percentage of cell viability relative to this control. The IC50 value was determined by fitting a dose-response curve using a nonlinear regression model with a four-parameter logistic equation. The experimental data analysis was performed using SigmaPlot version 12.0 (Systat Software Inc).

- Ionic current block IK2P (human TASK-1; 1 μM): 58%
- Ionic current block IK2P (human TASK-1; 10 μM): 75%
- inhibition at 100 µM (human TASK-1; 100 μM, +40 mV, oocytes, mean ± SD): 84.1 ± 10.7%
- Ionic current block IK2P (human TASK-1; 100 μM): 85%
- IC50 (human TASK-1; X. laevis oocytes, TEVC, block at +40 mV): ~310 nM and 310 nM
- Voltage-dependence of block of TASK-1 (human TASK-1; oocytes, KD96 solution): no significant voltage-dependence
SMILES: CCCCN(CCCC)CC(=O)Nc1ccc(OC)cc1OC [Compound 6f, 2-(dibutylamine)-N-(2,4-dimethoxiphenyl)acetamide]
- Concentrations with significant cytotoxic effects (MTT) (HEK-293 cells; 72 h): higher than 129 μM
- IC50 (HEK-293 cells; Homo sapiens, HEK293, 72 h, read-out: IC50 cell viability (MTT)): 130000 nM
